Assay results reported in patent publication US11180522B2, “Disulfide-linked reversible terminators” (Centrillion Technology Holdings Corporation, priority 2015, dated 2021).

Experiments:
Bst polymerase [1] = details: "runaway" reaction with Bst polymerase, 100 uM dNTPs, 37° C., before TCEP treatment
Protocol: For reactions with Bst large fragment (NEB), 40 uL of hybridized beads were resuspended in 22.5 uL of reaction mixture (40 mM Tris-HCl pH8.8, 20 mM ammonium sulfate, 20 mM KCl, 0.2% Triton X-100, 2 mM MgSO4, 40 U Bst). Reactions were pre-warmed to 37° C. for one minute before adding 2.5 uL of 1 mM dNTPs (NEB) (for a final concentration of 100 uM). After five minutes at 37° C., reactions were quenched with 40 μL RB. Beads were washed with 40 μL RB and SP_T was eluted with 0.1N NaOH for 10 minutes at room temperature then neutralized with 1.5 uL Tris-HCl pH8.0.
Denaturing PAGE: An equal volume of 2×TBE-Urea Sample Buffer (Novex, Thermo Fisher) was added to samples before heat-denaturation for five minutes at 85° C. 10 μL sample and a 10 bp ladder (TrackIt, Invitrogen) on a 15% TBE-Urea PAGE gel (Novex, Thermo Fisher) in 1×TBE for two hours at 160V. Gels were imaged for fluorescence before staining and again after staining with SYBR Gold (Thermo) on an AlphaImager 3400.

DNA polymerase CENT1 = assay: Primer extension assay with DNA polymerase CENT1; format: biochemical; details: 2 uM nucleotide, 45° C., one minute, denaturing PAGE
Protocol: (§1) Oligo Preparation: Oligos were purchased from IDT and stored at 500 uM in nuclease-free water: A biotinylated target sequence (Biot_Primer1_Capt, 5′-/5Biosg/[…] TTTCAG-3′ (SEQ ID NO: 1)) and a sequencing primer (SP_T, 5′-[…]-3′ (SEQ ID NO: 2)). 8 nmol of the biotinylated template sequence was conjugated to streptavidin-coated magnetic beads (T1 Dynabeads, Invitrogen) for one hour at room temperature in a solution containing 1M NaCl, 10 mM Tris-HCl pH7.5, 1 mM EDTA. Beads were washed three times with wash buffer at 60° C. (0.64×SSC, 0.016% SDS) to remove unbound primer and stored in 800 μL reaction binding buffer, RB, (1M NaCl, 25 mM Tris-HCl pH7.5, 0.01% TWEEN20) at 4° C. To hybridize the sequencing primer to the template, 100 uL of conjugated beads were incubated with a saturating amount of SP_T (2.5 nmol) in 200 μL RB at 70° C. for five minutes, 55° C. for 15 minutes, then 25° C. for 5 minutes. Hybridized beads were stored in 360 uL RB at room temperature.

Bst polymerase [2] = details: incubation with 100 mM TCEP pH9.0, 65° C., 30 minutes
Protocol: Primer extension: For reactions with CENT1 enzyme, the enzyme was boiled for 5 minutes at 95° C. before use. 40 uL of hybridized beads were resuspended in 22.5 uL of reaction mixture (40 mM Tris-HCl pH8.8, 20 mM ammonium sulfate, 20 mM KCl, 0.2% Triton X-100, 2 mM MgSO4, 1.5 ug CENT1). Reactions were pre-warmed to 45° C. for one minute before adding 2.5 uL of 20 uM nucleotide (for a final concentration of 2 uM). After one minute of incorporation, reactions were quenched with 40 μL RB. Beads were washed with 40 μL RB and either resuspended in a new reaction mixture for further incorporation events or SP_T was eluted with 0.1 N NaOH for 10 minutes at room temperature then neutralized with 1.5 uL Tris-HCl pH8.0. For reactions with Bst large fragment (NEB), 40 uL of hybridized beads were resuspended in 22.5 uL of reaction mixture (40 mM Tris-HCl pH8.8, 20 mM ammonium sulfate, 20 mM KCl, 0.2% Triton X-100, 2 mM MgSO4, 40 U Bst). Reactions were pre-warmed to 37° C. for one minute before adding 2.5 uL of 1 mM dNTPs (NEB) (for a final concentration of 100 uM). After five minutes at 37° C., reactions were quenched with 40 μL RB. Beads were washed with 40 μL RB and SP_T was eluted with 0.1N NaOH for 10 minutes at room temperature then neutralized with 1.5 uL Tris-HCl pH8.0.
Cleavage of Reversible Terminators: After incorporation of reversible terminators, beads were resuspended in 100 mM TCEP pH9.0 (Gold Bio) and incubated at 65° C. for 30 minutes before quenching with 100 μL RB. Beads were washed with 40 μL RB and either resuspended in a new reaction mixture for further incorporation events or SP_T was eluted with 0.1N NaOH for 10 minutes at room temperature then neutralized with 1.5 uL Tris-HCl pH8.0.

[3] = tested on: enhanced DNA polymerase (EDP); assay: Primer extension assay with enhanced DNA polymerase (EDP); format: biochemical; details: denaturing PAGE, FIG. 12
Protocol: as §1

| Molecule | Blocking of further extension after terminator incorporation (Bst polymerase [1]) | Primer extension (incorporation of the terminator into the growing DNA chain) catalyzed by CENT1 (DNA polymerase CENT1) | De-blocking (removal of 3′-azidomethyl cap, extension resumes) (Bst polymerase [2]) | Primer extension (incorporation of the terminator) catalyzed by EDP [3] |
| --- | --- | --- | --- | --- |
| 3′-O-azidomethyl-5-(Alexa530-dithiolinker-carbamate)-dUTP [compound 34] | Blocking of further extension after terminator incorporation is observed | extension was catalyzed | De-blocking was accomplished | – |
| CC(C)(C)OC(=O)NCCSSCCOC(=O)NCC#Cc1cn([C@H]2CC(OCN=[N+]=[N-])[C@@H](COP(=O)(O)OP(=O)(O)OP(=O)(O)O)O2)c(=O)[nH]c1=O (stereo partly drawn) [compound 31] | – | extension was catalyzed | De-blocking was accomplished | extension was catalyzed |
| [N-]=[N+]=NCOC1C[C@H](n2cc(C#CCNC(=O)OCCSSCCNC(=O)c3ccc(-c4c5ccc(=O)cc-5oc5cc(O)ccc45)c(C(=O)O)c3)c(=O)[nH]c2=O)O[C@@H]1COP(=O)(O)OP(=O)(O)OP(=O)(O)O (stereo partly drawn) [compound 33, 3′-O-azidomethyl-5-(Fluorescein-dithiolinker-cabamate)-2′-deoxyuridinetriphosphate] | Blocking of further extension after terminator incorporation is observed | extension was catalyzed | De-blocking was accomplished | – |
